From ChEMBL document CHEMBL2169825, “Development of selective, potent RabGGTase inhibitors” (J Med Chem, 2012) come the findings set out here.

One assay relates to HCT-116. In words: Cytotoxicity against human HCT116 cells after 24 hrs by Alamar Blue assay. In kind it is functional, cell-based. Conditions: HCT-116, 24 h. In general terms: Alamar Blue is a resazurin reagent that responds to reducing activity.
For another assay, the system named is HeLa. The assay is described as follows: Cytotoxicity against human HeLa cells after 24 hrs by Alamar Blue assay. In kind it is functional, cell-based.
For the next assay, the system named is A2780. In words: Cytotoxicity against human A2780 cells after 24 hrs by Alamar Blue assay. Type of assay: functional, cell-based. As to conditions: A2780, 24 h.
The next assay deals with PBMC. The assay is described as follows: Cytotoxicity against human PBMC cells after 24 hrs by Alamar Blue assay. Type of assay: cell-based.
The nature of assay [1]: Inhibition of RabGGTase in human HeLa cells after 6 hrs by reprenylation assay. Type of assay: cell-based.
Assay [2] in a line: Inhibition of RabGGTase using NBD-FPP as substrate after 5 mins by fluorometric assay.
A short description of assay [3]: Inhibition of GGTase 1 using NBD-FPP as substrate after 10 mins by solution based fluorometric assay.
The nature of assay [4]: Inhibition of FTase using NBD-GPP as substrate after 10 mins by solution based fluorometric assay.
Assay [5] can be described thus: Inhibition of RabGGTase using [3H]GGPP as substrate after 1 hr by scintillation proximity assay. (In a scintillation proximity assay essentially only radioactivity close to the scintillant gives light.)
Another assay deals with A549. In words: Cytotoxicity against human A549 cells after 24 hrs by Alamar Blue assay. Type of assay: functional, cell-based. As to conditions: A549, 24 h.

As usually defined, the IC50 is the concentration needed to halve the response being measured. Low readings indicate inhibition by little substance, high ones a need for much substance. As for `COc1ccc(S(=O)(=O)N2Cc3cc(-c4ccc(C=O)o4)ccc3N(Cc3cncn3C)C[C@H]2Cc2ccc(OC(=O)NCc3ccccc3)cc2)cc1`, the IC50 was 443 nM with HCT-116; 797 nM in the assay with HeLa; 589 nM with A2780; over 10000 nM with PBMC; 311 nM in assay [1]; 616 nM in assay [2]. For the same compound, the IC50 is over 99500 nM in [3], over 9700 nM in assay [4] and 1550 nM in assay [5].
`COc1ccc(S(=O)(=O)N2Cc3cc(-c4ccnc(OC)c4)ccc3N(Cc3cncn3C)C[C@H]2Cc2ccc(-c3cccnc3)cc2)cc1`: the IC50 in [1] was 300 nM; in assay [3], over 99500 nM; in assay [4] it was 79 nM; in assay [5], 121 nM.
As for `COc1ccc(S(=O)(=O)N2Cc3cc(-c4ccnc(OC)c4)ccc3N(Cc3cncn3C)C[C@H]2Cc2ccc(Nc3ccccc3)cc2)cc1`, the results for the IC50 in [3], in assay [4] and in assay [5] were over 99500 nM, 2430 nM and 5720 nM, respectively.
For `CCCCCCNC(=O)c1ccc2c(c1)CN(S(=O)(=O)c1ccc(OC)cc1)[C@H](Cc1ccc(O)cc1)CN2Cc1cncn1C`, the IC50 in assay [1] was 3890 nM; in assay [3] it was over 99500 nM; in assay [4], 20.7 nM; in assay [5], 70.5 nM.
As to `COc1ccc(S(=O)(=O)N2Cc3cc(N4CCN(C(C)=O)CC4)ccc3N(Cc3cncn3C)C[C@H]2Cc2ccc(O)cc2)cc1`, the 50% inhibitory concentration (IC50) in assay [3] is over 99500 nM; in [4] it was 112 nM; in [5] it was 27 nM.
As for `COc1ccc(S(=O)(=O)N2Cc3cc(Nc4ccccc4)ccc3N(Cc3cncn3C)C[C@H]2Cc2ccc(O)cc2)cc1`, the IC50 in assay [3] was over 99500 nM; in assay [4], 454 nM; in assay [5], 246 nM.
In the case of `COc1ccc(S(=O)(=O)N2Cc3cc(-c4ccc(C=O)o4)ccc3N(Cc3cncn3C)C[C@H]2Cc2ccc(OS(=O)(=O)C(F)(F)F)cc2)cc1`, the half-maximal inhibitory concentration (IC50) in assay [3] is over 99500 nM; in assay [4], over 9700 nM; in [5], 4290 nM.
Regarding `COc1ccc(S(=O)(=O)N2Cc3cc(-c4ccc(C=O)o4)ccc3N(Cc3cncn3C)C[C@H]2Cc2ccc(-c3ccc(Cl)cc3)cc2)cc1`, the half-inhibitory concentration (IC50) in assay [3] was over 99500 nM; in [4] it was over 9700 nM; in assay [5], 2240 nM.
Regarding `COc1ccc(S(=O)(=O)N2Cc3cc(-c4ccc(C#N)o4)ccc3N(Cc3cncn3C)C[C@H]2Cc2ccc(OC(=O)NCc3ccccc3)cc2)cc1`, the IC50 was 35 nM in the assay with HCT-116; 101 nM in the assay with HeLa; 115 nM in the assay with A2780; over 10000 nM in the assay on PBMC; 49 nM in assay [1]; 41.6 nM in [2]. Moreover, the half-inhibitory concentration (IC50) is over 99500 nM in [3], over 9700 nM in [4] and 260 nM in [5].
For the compound `COc1ccc(S(=O)(=O)N2Cc3cc(-c4ccc(C#N)o4)ccc3N(Cc3cncn3C)C[C@H]2Cc2ccc(OCc3ccccc3)cc2)cc1`, the half-maximal inhibitory concentration (IC50) is 213 nM in assay [1], over 99500 nM in assay [3], over 9700 nM in [4] and 577 nM in [5].
`COc1ccc(S(=O)(=O)N2Cc3cc(-c4ccc(C#N)o4)ccc3N(Cc3cncn3C)C[C@H]2Cc2ccc(OS(=O)(=O)C(F)(F)F)cc2)cc1`: the IC50 in the assay with HCT-116 is 71 nM; in the assay on HeLa, 130 nM; in the assay on A2780, 222 nM; in the assay on PBMC, over 10000 nM; in assay [1], 54 nM.
For the compound `COc1ccc(S(=O)(=O)N2Cc3cc(-c4ccc(C#N)o4)ccc3N(Cc3cncn3C)C[C@H]2Cc2ccc(-c3cccnc3)cc2)cc1`, the figures for the IC50 in assay [3], in assay [4] and in [5] were over 99500 nM, 110 nM and 37 nM, respectively.
Turning to `COc1ccc(S(=O)(=O)N2Cc3cc(-c4ccc(C#N)o4)ccc3N(Cc3cncn3C)C[C@H]2Cc2ccc(Nc3ccccc3)cc2)cc1`, the results for the IC50 in [3], in assay [4] and in assay [5] were over 99500 nM, 1210 nM and 1060 nM, respectively.
With `COc1ccc(S(=O)(=O)N2Cc3cc(-c4ccnc(OC)c4)ccc3N(Cc3cncn3C)C[C@H]2Cc2ccc(OC(=O)NCc3ccccc3)cc2)cc1`, the IC50 in assay [1] is 338 nM; in assay [3], over 99500 nM; in [4], 321 nM; in assay [5], 55 nM.
With `COc1ccc(S(=O)(=O)N2Cc3cc(-c4ccnc(OC)c4)ccc3N(Cc3cncn3C)C[C@H]2Cc2ccc(OCc3ccccc3)cc2)cc1`, the values for the IC50 in assay [3], in [4] and in assay [5] were over 99500 nM, 2560 nM and 5240 nM, respectively.
For the compound `COc1ccc(S(=O)(=O)N2Cc3cc(-c4ccc(C=O)o4)ccc3N(Cc3cncn3C)C[C@H]2Cc2ccc(O)cc2)cc1`, the IC50 in assay [1] was 120 nM; in assay [2], 206 nM; in assay [3], over 99500 nM; in [4], 7 nM.
With `COc1ccc(S(=O)(=O)N2Cc3cc(-c4ccc(C#N)o4)ccc3N(Cc3cncn3C)C[C@H]2Cc2ccc(O)cc2)cc1`, the IC50 with HCT-116 was 2 nM; in the assay on HeLa, 21 nM; in the assay with A2780 it was 18 nM; in the assay on PBMC it was over 10000 nM; in assay [1] it was 11 nM; in [2] it was 62.5 nM. Also, the values for the IC50 in assay [3], in [4] and in assay [5] were over 99500 nM, 26.9 nM and under 14 nM, respectively.
Regarding `COc1ccc(S(=O)(=O)N2Cc3cc(-c4ccc(Cl)cc4)ccc3N(Cc3cncn3C)C[C@H]2Cc2ccc(O)cc2)cc1`, the IC50 in assay [3] was over 99500 nM; in [4] it was 194 nM; in assay [5], 706 nM.
As to `COc1ccc(S(=O)(=O)N2Cc3cc(-c4ccnc(OC)c4)ccc3N(Cc3cncn3C)C[C@H]2Cc2ccc(O)cc2)cc1`, the IC50 is over 99500 nM in assay [3], 18.6 nM in assay [4] and 5.5 nM in assay [5].
`COc1ccc(S(=O)(=O)N2Cc3cc(-c4ccncc4)ccc3N(Cc3cncn3C)C[C@H]2Cc2ccc(O)cc2)cc1`: the IC50 in assay [3] was over 99500 nM; in [4], 13.6 nM; in [5], under 4 nM.
Take `COc1ccc(S(=O)(=O)N2Cc3cc(-c4cccc(C#N)c4)ccc3N(Cc3cncn3C)C[C@H]2Cc2ccc(O)cc2)cc1`: the IC50 in assay [3] is over 99500 nM; in assay [4], 34.4 nM; in assay [5], 22.5 nM.
In the case of `COc1ccc(S(=O)(=O)N2Cc3cc(-c4cc(F)cc(F)c4)ccc3N(Cc3cncn3C)C[C@H]2Cc2ccc(O)cc2)cc1`, the IC50 in [3] was over 99500 nM; in [4], 172 nM; in [5] it was 185 nM.
On to `COc1ccc(S(=O)(=O)N2Cc3cc(-c4ccco4)ccc3N(Cc3cncn3C)C[C@H]2Cc2ccc(O)cc2)cc1`, for which the concentration for half-maximal inhibition (IC50) in assay [3] is over 99500 nM; in assay [4], 81.7 nM; in assay [5], 55 nM.
Regarding `COc1ccc(S(=O)(=O)N2Cc3cc(C(=O)NCc4ccccc4)ccc3N(Cc3cncn3C)C[C@H]2Cc2ccc(O)cc2)cc1`, the IC50 in assay [3] is over 99500 nM; in assay [4], 7 nM; in assay [5], 19 nM.
Consider `COc1ccc(S(=O)(=O)N2Cc3cc(C#N)ccc3N(Cc3cncn3C)C[C@H]2Cc2ccc(OC/C=C(\C)CCC=C(C)C)cc2)cc1`, for which the concentration for half-maximal inhibition (IC50) in the assay on HCT-116 is 1430 nM; with A2780 it was 1380 nM; with A549 it was 653 nM; in the assay with PBMC it was over 10000 nM; in assay [1], 278 nM; in [2], 2070 nM. Further, the IC50 in assay [3] was over 99500 nM; in assay [4], 1010 nM; in assay [5] it was 23.5 nM.
